Reference: patent publication US20250179167A1, “IL-6 INHIBITOR AS TREATMENT FOR NEPHROPATHY” (YALE UNIVERSITY, priority 2022, published 2025)

Experiments:
diabetic CD-1 mice = assay: FA modulators (fenofibrate, etomoxir, C75, simvastatin) in diabetic CD-1 mice; type: in vivo, mouse; conditions: for CPT1a level / FAO, as measured by [14CO2] release / β-catenin level / fibrogenic phenotype / level of fibrosis / level of GR protein in CD31 positive cells: diabetic CD-1 mice; for fibrogenic phenotype / level of fibrosis / level of GR protein in CD31 positive cells: treated for 4 weeks; for fibronectin mRNA level / αSMA mRNA level: diabetic kidneys, CD-1 mice
Method: FIG. 33A-33F show endothelial GR is essential for the action of anti-dyslipidemic drugs in the diabetic kidney disease. (FIG. 33A) Masson trichrome (MTS) and Sirius red staining in kidneys of control, diabetic, fenofibrate-, etomoxir-, C75- and simvastatin-treated diabetic mice. Representative images (original magnification 300×) are shown. Relative area of fibrosis (%) and relative collagen deposition (%) were measured using the ImageJ program. n=6 biologically independent mice/group combined from two experiments were analyzed. Scale bar 50 μm. (FIG. 33B) Co-immunolabeling of GR/CD31 was analyzed by fluorescence microscopy. FITC-labeled GR, rhodamine-labeled CD31 and DAPI were used. Representative images are shown; original magnification 300×. Scale bar 50 μm. n=6 biologically independent mice/group combined from two experiments were analyzed. (FIG. 33C) PCR gene analiof fibronectin and α-SMA in the kidneys. 18S was used as an internal control. n=6 biologically independent mice/group. (FIG. 33D) Blood glucose measurements in control, diabetic, fenofibrate-, etomoxir-, C75- and simvastatin-treated diabetic mice. n=6 biologically independent mice/group. (FIG. 33E) Radiolabeled [^14C]palmitate oxidation and [^14CO2]release were measured. CPM of each sample was counted. Endothelial cells isolated from six biologically independent mice were evaluated. Three independent experiments were analyzed. Data are mean±SEM (FIG. 33F) Immunohistochemical analysis of CPT1a and β-catenin was analyzed in the kidneys of control, diabetic, fenofibrate-, C75-, etomoxir- and simvastatin-treated diabetic mice. n=6 biologically independent mice/group. Representative images are shown; original magnification 400×. Scale bar 50 μm. Data are mean SEM. In all panels, one-way Anova with Tukey multiple comparison post hoc test was used to calculate statistical significance. Significance—*p<0.05, **p<0.01, ***p<0.001. Con: control, DM: diabetic, feno: fenofibrate.
A single IP dose of 200 mg/kg STZ was used to induce diabetes in CD-1 mice.
In one experiment, male mice were randomized to one of 4 groups sixteen weeks after induction of diabetes: (i) untreated, (ii) fenofibrate (100 mg/kg), (iii) simvastatin (40 mg/kg), or (iv) Wnt inhibitor (LGK974; 5 mg/kg). In each case, mice were treated for 4 weeks and compared to untreated diabetic CD-1 mice. In another experiment, male diabetic CD-1 mice were randomized into one of 3 groups: (i) untreated (vehicle), (ii) etomoxir (20 mg/kg) or (iii) C75 (15 mg/kg); in each case mice were treated (IP) three times/week for a total 4 weeks.
Morphological Evaluation. A point-counting method was utilized to evaluate the relative area of the mesangial matrix. The inventors analyzed PAS-stained glomeruli from each mouse using a digital microscope screen grid containing 540 (27×20) points. Masson's trichrome-stained images were evaluated by ImageJ software, and the fibrotic areas were estimated.
Sirius red staining. Deparaffinized sections were incubated with picrosirius red solution for 1 hour at room temperature. The slides were washed twice with acetic acid solution for 30 seconds per wash. The slides were then dehydrated in absolute alcohol three times, cleared in xylene, and mounted with a synthetic resin. Sirius red staining was analyzed using ImageJ software, and fibrotic areas were quantified.
Immunohistochemistry. Paraffin-embedded kidney sections (5 μm thick) were deparaffinized and rehydrated (2 min in xylene, four times; 1 min in 100% ethanol, twice; 1 min in 95% ethanol; 45 s in 70% ethanol; and 1 min in distilled water), and the antigen was retrieved in a 10 mM citrate buffer pH 6 at 98° C. for 60 min. To block the endogenous peroxidase, all sections were incubated in 0.3% hydrogen peroxide for 10 min. The immunohistochemistry was performed using a Vectastain ABC Kit (Vector Laboratories, Burlingame, CA). Mouse anti-β-catenin antibody (1:100) and CPT1a (Abnova; H00001374-DO1P; 1:100) antibodies were used. […]

[1] = system: control littermates and GR^ECKO mice; assay: Etomoxir and C75 in non-diabetic and diabetic control littermates and GR^ECKO mice; type: in vivo, mouse; conditions: for level of renal fibrosis: nondiabetic control and GR^ECKO mice
Method: FIGS. 6A-6E show metabolic reprogramming by loss of endothelial GR loss worsens diabetic kidney disease. (FIG. 6A) Radiolabeled ^14C-palmitate uptake analysis in isolated endothelial cells from kidneys of nondiabetic and diabetic control, GR^ECKO Apoe^−/− and DKO mice. CPM of each sample were counted. Data were normalized to μg protein. Fold activity is presented. Endothelial cells isolated and cultured from six biologically independent mice/group were performed in triplicate and analyzed for ^14C-palmitate uptake analysis. Data are mean±SEM. (FIG. 6B) Radiolabeled [^14C]palmitate oxidation and [^14CO2]release were measured in isolated endothelial cells from kidneys of nondiabetic and diabetic control, GR^ECKO Apoe^−/− and DKO mice. CPM of each sample was counted. Data were normalized to μg protein. Fold activity is presented. Endothelial cells isolated and cultured from six biologically independent mice/group were performed in triplicate and analyzed for ^14C-palmitate uptake analysis. Data are mean±SEM. (FIG. 6C) Body weight, blood glucose, and kidney weight/body weight were measured at the end of these experiments. N=6 biologically independent mice from two experiments. Ex vivo radiolabeled [^14C]palmitate oxidation and [^14CO2]release were measured in kidneys. CPM of each sample was counted. Isolated endothelial cells from five biologically independent mice/group were analyzed in triplicate. Data are mean±SEM. (FIG. 6D) Masson trichrome, Sirius red and PAS staining were analyzed in the kidneys of control, etomoxir- and C75-treated diabetic mice. Representative images are shown; original magnification 300×. Relative area of fibrosis (%) and relative collagen deposition (%) were measured using the ImageJ program. N=8 biologically independent mice per/group from three independent experiments were analyzed. Scale bar 50 μm. Data are mean±SEM. (FIG. 6E) Immunohistochemical analysis of CPT1a and β-catenin. Representative images are shown; original magnification 300×. Scale bar 50 μm. N=6 biologically independent mice per group from three independent experiments. For all panels one-way ANOVA with Tukey post-test was used for analysis of statistical significance. Significance—*p<0.05, **p<0.01, ***p<0.001.
Body weight, blood glucose, and kidney/body weight ratio and fatty acid oxidation as represented by [^14CO2]release are shown. [^14C]palmitate was used as substrate and CPM counts were normalized by protein. n=6 biologically independent mice/group. Data are mean±SEM. One-way Anova with Tukey multiple comparison post hoc test was used to calculate statistical significance. Significance—*p<0.05.
Masson trichrome staining (upper panel) and Sirius red (lower panels) in etomoxir- and C75-treated non-diabetic control and GR^ECKO mice. Etomoxir (20 mg/kg) and C75 (15 mg/kg) were dosed (IP) three times per week for 3 weeks in GR^ECKO and control littermates. Representative images are shown; original magnification 400×. Area of fibrosis (%) and relative collage deposition (%) in n=6 biologically independent mice/group were combined from two independent experiments. Scale bar 50 μm. Data are mean±SEM. One-way Anova with Tukey multiple comparison post hoc test was used to calculate statistical significance. Significance-**p<0.01.
Animal Experimentation. All experiments were performed according to a protocol approved by the Institutional Animal Care and Use Committee at the Yale University School of Medicine and were in accordance with the National Institute of Health (NIH) Guidelines for the Care of Laboratory Animals Mice were housed at an ambient temperature of 68-79° F. with a humidity that ranged between 30%-70%. They were exposed to 12-h light-dark cycles Mice lacking the endothelial glucocorticoid receptor (GR) (known as GR^ECKO) and those lacking this receptor on the Apoe null background (DKO) were generated as previously described^25; these mice were on the C57BL/6 background. […]

[2] = kidney ECs from diabetic GR^ECKO mice
[3] = kidney ECs, non-diabetic control littermates
[4] = kidneys of diabetic GR^ECKO mice
[5] = kidneys of diabetic control mice

| SMILES | CPT1a level (diabetic CD-1 mice) | FAO, as measured by [14CO2] release (diabetic CD-1 mice) | β-catenin level (diabetic CD-1 mice) | fibrogenic phenotype / level of fibrosis (diabetic CD-1 mice) | level of GR protein in CD31 positive cells (diabetic CD-1 mice) | fibronectin mRNA level (diabetic CD-1 mice) | αSMA mRNA level (diabetic CD-1 mice) | expression of CPT1a (immunohistochemical analysis, FIG. 6E) ([1]; diabetic GR^ECKO mice) | expression of β-catenin (immunohistochemical analysis, FIG. 6E) ([1]; diabetic GR^ECKO mice) | expression of CPT1a (immunohistochemical analysis, FIG. 6E) ([1]; diabetic control mice) | expression of β-catenin (immunohistochemical analysis, FIG. 6E) ([1]; diabetic control mice) | FAO [1, 2] | FAO [1, 3] | CPT1a level [1, 4] | level of β-catenin [1, 4] | renal fibrogenic phenotype [1, 4] | CPT1a level [1, 5] | level of β-catenin [1, 5] | renal fibrogenic phenotype [1, 5] | level of renal fibrosis [1] |
| --- | --- | --- | --- | --- | --- | --- | --- | --- | --- | --- | --- | --- | --- | --- | --- | --- | --- | --- | --- | --- |
| C=C1C(=O)OC(CCCCCCCC)C1C(=O)O (stereo not shown) [C75] | increased the expression of CPT1a | increased the level of FAO | suppressed the level of β-catenin | ameliorated the fibrogenic phenotype | restored | downregulated | downregulated | A similar pattern was observed | A similar pattern was observed | substantially reverse | substantially reverse | unable to rescue | restored FAO | also observed in the GR^ECKO mice, though to a lesser extent | also observed in the GR^ECKO mice, though to a lesser extent | also observed in the GR^ECKO mice, though to a lesser extent | restored CPT1a | completely diminished the level of β-catenin | clearly abolished the renal fibrogenic phenotype | mitigated |
| CCOC(=O)[C@@]1(CCCCCCOc2ccc(Cl)cc2)CO1 [etomoxir] | significant suppression | significant suppression | induced the expression of β-catenin | exacerbated the fibrosis | suppressed it | upregulated | upregulated | A similar pattern was observed | A similar pattern was observed | decreased expression of CPT1a | increasing expression of β-catenin | significant suppression of FAO | significant suppression of FAO | suppressed the CPT1a level | increased the expression level of β-catenin | accelerated the renal fibrogenic phenotype | suppressed the CPT1a level | increased the expression level of β-catenin | accelerated the renal fibrogenic phenotype | slightly increased the level of renal fibrosis |
